This series can be described thus: Solubility of posaconazole free base. Format: physicochemical. As to the method: The provision of a solid composition comprising posaconazole suitable for preparing a solid dosage form for oral administration has heretofore been hampered by the poor solubility and weak basicity of the posaconazole free-base compound. Posaconazole is soluble at low pH. For example, in the environment of the stomach (approximately pH 1) posaconazole free base has a solubility of approximately 0.8 mg/mL. However, when posaconazole dissolved in the stomach fluids reaches the environment of the intestines (typically less acidic than about pH 6.4) a substantial amount of the dissolved posaconazole precipitates, hindering absorption in the intestines. It has been determined that in environments where the pH is about pH 6.4 or more basic the solubility of posaconazole free base is less than about 1 microgram/mL.

In brackets after ≈: the same amount, converted by molar mass.

Take `CC[C@@H]([C@H](C)O)n1ncn(-c2ccc(N3CCN(c4ccc(OC[C@@H]5CO[C@@](Cn6cncn6)(c6ccc(F)cc6F)C5)cc4)CC3)cc2)c1=O` [posaconazole free base, posaconazole]: the solubility (pH 6.4, pH about 6.4 or more basic) was less than 1 µg/mL and the solubility (simulated gastric fluid, environment of the stomach, approximately pH 1) was approximately 800 µg/mL (≈ 1140 µM).

For orientation: solubility means how much of the substance goes into solution per volume.
